# According to patent US20140212431A1, “PCSK9-BINDING POLYPEPTIDES AND METHODS OF USE” (Genentech, Inc., priority 2011, published 2014):
# Key:
# liver LDLR = experiment: rescue of liver LDLR upon treatment with PCSK9 in a mouse model (immuno-blotting); format: in vivo; settings: mice, 60 mg/kg i.v. 2 h before 30 μg PCSK9 i.v., liver after 1 h
# Method: Mice were injected with vehicle (V), EGF-Fc (WT) or EGF66-Fc (MUT) followed by a bolus injection of recombinant human PCSK9 (30 μg/mouse). Livers were collected after 1 h and LDLR quantified by immuno-blotting. Each lane represents the pooled liver samples of three mice. The band intensities were quantified, normalized to transferring receptor contents and expressed as fraction of the untreated group (=1.0).
# To determine whether increased affinity and cell efficacy could translate into improved therapeutic potential, we compared the effects of EGFwt-Fc and EGF66-Fc in rescuing liver LDLR upon treatment with PCSK9 in a mouse model. Eight weeks old male C57BL/6 mice were purchased from approved vendor and housed for 2 weeks before starting the experiment. […]
# Approximately 200 mg of each liver were homogenized in Extraction Buffer 1 supplemented with Protease Inhibitor Cocktail (ProteoExtract® Native Membrane Protein Extraction Kit, Cat. No. 444810, Calbiochem) using the TissueLyser (Qiagen) according to manufacturer's instructions. […] After 30 min of gentle agitation at 4° C., the samples were centrifuged and the supernatants containing the membrane proteins were quantified using the Bradford assay. […]
# Mice were first injected with vehicle, EGFwt-Fc and EGF66-Fc followed by a bolus of recombinant human PCSK9 (30 μg/mouse) and livers were collected and analyzed 1 h later. […]
# [1] = tested on: PCSK9-mediated LDLR degradation; experiment: LDLR degradation assay with HepG2 cells (FACS of cell surface LDLR); format: cell-based, human; settings: HepG2, 15 μg/ml PCSK9, 4 h, highest concentration tested 20 μM
# Method: Values are the average ±SD of three independent experiments.
# HepG2 cells (ATCC; Manassas, Va.) were seeded into 48 well plates (Corning; Corning, N.Y.) at 1×10^5 cells per well in high glucose medium (DMEM, Gibco; Carlsbad, Calif.) containing 2 mM glutamine (Sigma), penicillin/streptomycin (Gibco) and 10% FBS (Sigma) and incubated overnight. Then the medium was changed to DMEM containing 10% lipoprotein deficient serum (LPDS, Intracel; Frederick, Md.). After 24 h, 15 μg/ml PCSK9 was mixed with serially diluted EGFwt-Fc and EGF66-Fc fusion proteins, added to the cells and incubated at 37° C. for 4 h. Cells were rinsed with PBS and detached using 2.5 mM EDTA (EMD; Gibbstown, N.J.). After centrifugation, the resuspended cells were incubated with 1:20 anti-LDLR antibody (Progen Biotechnik; Heidelberg, Germany) on ice for 15 min. The samples were then washed with PBS and incubated with 1:200 diluted goat anti mouse IgG Alexa Fluor® 488 (Invitrogen; Carlsbad, Calif.) on ice for 15 min. After two PBS washes cells were resuspended in PBS containing 10 μg/ml of propidium iodide and analyzed on a dual laser flow cytometer (FACScan, Becton Dickinson; Franklin Lakes, N.J.). Relative fluorescence units (RFUs) were used to quantify LDLR expression levels on the HepG2 cell surface. Cell surface LDLR levels were expressed as percent of LDLR levels measured in the absence of PCSK9 (=control).
# PCSK9 = biological target: T1, PCSK9 (Homo sapiens, UniProt Q8NBP7); experiment: spot phage ELISA of EGF(A)-displaying phage clones against biotinylated PCSK9; format: binding; settings: compared to wild type
# T1 construct: His8 (C); made in house; host or cells: CHO cells, transient, pRK5 vector, purified from conditioned media
# T1 sequence (Q8NBP7 153-692): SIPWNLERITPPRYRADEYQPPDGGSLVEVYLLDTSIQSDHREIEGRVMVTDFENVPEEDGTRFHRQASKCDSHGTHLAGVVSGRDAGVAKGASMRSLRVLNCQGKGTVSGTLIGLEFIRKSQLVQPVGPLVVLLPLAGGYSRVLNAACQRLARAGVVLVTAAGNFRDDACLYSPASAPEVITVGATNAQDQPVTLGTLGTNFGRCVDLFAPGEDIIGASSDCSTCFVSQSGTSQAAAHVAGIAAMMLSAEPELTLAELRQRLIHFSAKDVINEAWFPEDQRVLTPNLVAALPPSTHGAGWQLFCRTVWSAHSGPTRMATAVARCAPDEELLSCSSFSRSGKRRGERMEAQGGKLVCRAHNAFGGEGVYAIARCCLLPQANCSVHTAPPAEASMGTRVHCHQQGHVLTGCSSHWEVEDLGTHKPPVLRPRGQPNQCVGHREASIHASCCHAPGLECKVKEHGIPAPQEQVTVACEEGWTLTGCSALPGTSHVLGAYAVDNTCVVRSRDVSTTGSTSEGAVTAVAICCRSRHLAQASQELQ
# Method: “s/n ratio” refers to signal:noise ratio, wherein “signal” is the spot phage ELISA signal detected against biotinylated PCSK9 captured by NeutrAvidin coated on the 384-well MaxiSorp™ plate; “noise” is the ELISA signal against NeutrAvidin alone.
# After four rounds of binding selection, individual phage clones were picked and inoculated into 450 μl 2YT media containing 50 μg/ml carbenecillin and M13-KO7 helper phage in 96-well blocks, which were grown at 37° C. for overnight. The supernatant was analyzed with spot phage ELISA as follows: Biotinylated PCSK9 was captured to NeutrAvidin-coated 384-well MaxiSorp™ immunoplates and phage supernatant diluted (1:3) with PBT buffer was added to the wells. The plates were washed and bound phage was detected with anti-M13-HRP followed by TMB substrate. In these assays, phage binding to NeutrAvidin alone was tested in parallel to assess background binding. Clones whose binding signals for PCSK9 were more than 4 times higher than to NeutrAvidin (background) were considered positive. Positive clones were subjected to DNA sequence analysis.
# PCSK9 binding to LDLR = biological target: T2, PCSK9 binding to LDLR (Homo sapiens, UniProt Q8NBP7); experiment: competition binding ELISA (biotinylated PCSK9 binding to coated rLDLR); settings: Fc fusion protein; average ±SD of three experiments; read-out: IC50, inhibition of PCSK9 binding to LDLR
# T2 construct: His8 (C); biotin (chemical, Sulfo-NHS); host or cells: PCSK9: CHO cells, transient; LDLR extracellular domain purchased
# T2 sequence (Q8NBP7 153-692): as above
# T2 sequence (Q8NBP7 31-152 partner limits assumed): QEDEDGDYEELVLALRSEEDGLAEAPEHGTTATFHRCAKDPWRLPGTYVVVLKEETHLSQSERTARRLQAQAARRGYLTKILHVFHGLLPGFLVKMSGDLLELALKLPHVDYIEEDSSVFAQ
# Method: The blocking activity of EGF peptides and EGF-Fc fusion proteins was determined by using a competition binding ELISA. Wells of 384 well MaxiSorp™ plates (Nalge Nunc International; Rochester, N.Y.) were coated overnight at 4° C. with 1 μg/mL of recombinant human LDLR extracellular domain (rLDLR) (R&D Systems; Minneapolis, Minn.) in coating buffer (50 mM sodium carbonate, pH 9.6). Then 0.5 μg/ml of biotinylated PCSK9 in assay buffer (25 mM HEPES, pH 7.2, 150 mM NaCl, 0.2 mM CaCl2, 0.1% BSA, 0.05% Tween®20) was mixed with an equal volume of serially diluted EGF peptides (0.017-6000 nM) or EGF-Fc (0.034-6000 nM) and incubated for 30 min. The solutions were added to rLDLR coated plates and incubated for 2 h. Bound biotinylated rPCSK9 was detected by sequential additions of streptavidin-horseradish peroxidase (GE Healthcare; Buckinghamshire, UK) and substrate 3, 3′, 5, 5′ tetramethyl benzidine (TMBE 1000, Moss; Pasadena, Md.). The mean absorbance values from duplicate wells were plotted as a function of antibody concentration and the data were fitted to a four parameter equation for each antibody using KaleidaGraph (Synergy Software; Reading, Pa.).
substance,measurement,setting,value
EGFwt-Fc: wild type EGF(A) domain of LDLR fused via linker GGGSGAAQVTNKTHT to Fc domain of human IgG1 [reference compound],"liver LDLR level rescued, % of control levels",liver LDLR,less than 50%
same,"LDLR surface levels, percent of control levels measured in the absence of PCSK9",[1],56%
EGF50: phage-displayed EGF(A) clone with single mutation at N309 to Arg,binding of phage-displayed clone to PCSK9 (in words),PCSK9,moderate increase of binding
"EGF52: EGF(A) variant: Asp299 to Ser, Asn301 to Leu, Asn309 to Arg or Lys, Asp310 to Lys; phage clone and synthetic peptide",IC50,PCSK9 binding to LDLR,0.7 ± 0.3 nM
